Reference: patent publication US20240350579A1 (priority 2020, published 2024)

Tests used:
[1] = Net peptide charge and isoelectric point; type: physicochemical; details: pH 7
Text: The peptide may be purified. For example, the peptide may be lyophilized. […] Other peptides are within the scope of the disclosure.
Exemplary peptides having a charge of +5 to +9 include […](d)[…], […](d)[…], and […](d)[…]. In other embodiments, the purified peptide may be substantially neutral. […] Net charge may be selected by peptide design. Design of electrostatic charge in the peptide hydrogel may allow control of charge interaction with cell membrane and proteins.

E. coli = experiment: Antibacterial assay of PEPXR hydrogels; type: cell-based
Text: (§1) Thus, the peptide hydrogels described herein may generally comprise a high content of positively charged arginine (R) amino acids.

S. aureus = experiment: Antibacterial assay of PEPXR hydrogels; type: cell-based
Text: as §1

P. aeruginosa = experiment: Antibacterial assay of PEPXR hydrogels; type: cell-based
Text: as §1
The peptide hydrogel is believed to directly lyse bacterial membranes indiscriminately. […] The mechanism additionally makes it more difficult for the treated microorganisms to gain antibiotic resistance.

Row | Substance | net charge [1] | antimicrobial activity (in words) (E. coli) | antimicrobial activity (in words) (S. aureus) | antimicrobial activity (in words) (P. aeruginosa)
1 | VEVSVSVEV(d)PPTEVSVEVEV | net negative charge |  |  | 
2 | VKVRVRVRVPPTRVRVRVKV [PEP6R] |  | potent antimicrobial activity | potent antimicrobial activity | potent antimicrobial activity
